Experiment [1] concerns OVCAR-3. The experiment in a line: Cell viability after 4 hours (Cell Titer Glo), OVCAR-3. As to conditions: 4 h incubation; read-out: Activities [μM] OVCAR-3 (p41). The experiment is classed as cell-based, human. How it is done: Human ovarian cancer cell lines OVCAR-3 (p 41), SKOV-3 (p 35) and the human uterine sarcoma cell line MES-SA-Dx5 (p 61) (multi-drug resistant clone), the human pancreatic cancer cell line Panc-1 (passage number 18), and human triple negative breast cancer cell line MDA-MB-231 (passage number 47) were grown in ATCC recommended medium, 10% fetal bovine serum, 100 IU/ml penicillin, 100 microg/ml streptomycin. Cells were typically seeded (2,000 cells per well) into 96 well plates and media was replaced after 48 hours of incubation. […] Each Phor-18-hFSH-β81-89 conjugate provided in lyophilized form was dissolved in saline and added to cells. The duration of incubation was 4 hours at 37° C. Cell viability was assessed after 4 hours using a luminometric assays (Promega, Cell Titer Glo, G755B, lot #00000031421). Controls contained saline or 0.1% triton as reference for 0 and 100% cell death, respectively.
Data were processed and analyzed using GraphPad Prism version 5.00 for Windows, GraphPad Software, San Diego Calif. USA, www.graphpad.com”. Statistical analysis for significance was determined by a two-tailed Student's T-test. Each study was conducted to achieve an N of at least 6.
In vitro activities were expressed as IC50 values for each cell line, time point and compound tested that were calculated using the Hill equation (Graph Pad Prizm software).

Another experiment relates to MDA-MB-435S xenograft. As to the kind of experiment: MDA-MB-435S xenograft, kinetics of tumor destruction after a single injection. It is filed as in vivo, mice. As to conditions: single i.v. injection, 0.2 and 2 mg/kg. How it is done:
In brief, Nu/Nu female mice, outbred strain, age 5 weeks (Charles River), were injected (s.c.) into the interscapular region with a MDA-MB-435S (passage #249)/Matrigel suspension (2.4×10^6 cells/mouse) as described in Example 10. […] The doses were given as a single bolus intravenous injection via lateral tail vein.
Mice were sacrificed 1, 2 and 16 hours after treatment with Phor 18-LHRH (338613) or saline. At study endpoint body weight, tumor weights were determined and tumors were fixed in phosphate buffered 10% formalin.

For a further experiment, the system named is OVCAR-3 cells. It is filed as cell-based, human. As to conditions: OVCAR-3 (p47), values listed with increasing incubation time, times not stated. The source says:
(§1) Membranes of non-cancerous cell lines are neutral and are resistant to cytolytic peptides, in contrast to cancer cell lines, which have a high phosphatidic acid content in their outer membrane.
(§2) The breast cancer cell lines studied were MDA-MB-4355 (estrogen receptor alpha negative), MCF-7 and T47D (estrogen receptor alpha positive), ovarian cancer cell lines (OVCAR-3 and SKOV-3), prostate cancer (LNCaP), the non-malignant breast epithelial cell line MCF-10A and the mouse fibroblast cell line NIH:3T3.
(§3) Cells were seeded into 96 well plates at a densitiy of 10,000 cells/well. […] Controls contained USP saline or 0.1% TritonX-100™ as reference for 0 and 100% cell death, respectively. […] Cell viability was assessed through formazan conversion assay (MTT assay, (CellTiter 96 Aqueous One, Promega # G3582). Formazan conversion was determined using a BioRad Benchmark Plus microplate spectrophotometer dual wavelengths at 490/630 nm at room temperature).
(§4) Data were calculated as fraction of absorption in TritonX-100™ containing wells representing 100% cell death versus 0% cell death in saline containing wells. Cytotoxicity was determined as IC50 using GraphPad Prism version 5.01 for Windows, GraphPad Software, San Diego Calif. […] 4 wells of each individual set of two 96 well plates were compared and analyzed. Statistical analysis for significance was determined by a two-tailed Student's T-test.

Another experiment relates to SKOV-3 cells. It is filed as cell-based, human. As to conditions: SKOV-3, 24 hours incubation; read-out: IC50 (maximal efficacy).
Source text: as §1, §2, §3, §4

Experiment [2] has as its system OVCAR-3. The experiment in a line: IC50 in human cancer cell lines compared to cisplatinum: OVCAR-3. The experiment is classed as cell-based. As to conditions: ovarian cancer cell line. Here is the method: MDA-MB-435S.luc cells were grown in Leibovitz's L 15 medium, 10% fetal bovine serum, 0.01 mg/ml bovine insulin, 100 IU/ml penicillin, 100 microg/ml streptomycin. The cells were cultured in tight closed flasks. The incubations were conducted using 96 well plates at 10,000 cells per well. Cells were typically seeded into 96 well plates and media was replaced after 48 hours of incubation. Each assay was conducted at increasing concentrations of 0, 0.001, 0.01, 0.05, 0.1, 0.5, 1, 2, 5, 10 and 100 micromolar doses of lytic peptide-binding domain conjugate. Each lytic peptide-binding domain conjugate provided in lyophilized form and was freshly dissolved in saline and added to cells. The duration of incubation was typically 24 h, and cell viability assays were conducted using formazan conversion assays (MTT assay). Controls contained saline or 0.1% triton as reference for 0 and 100% cell death, respectively.
To ascertain the IC50 of various fusion constructs on different human cancer cell lines compared to cisplatinum, IC50 of fusion constructs were evaluated as in Table 3.

The next experiment deals with MDA-MB-435S.luc cells. As to the kind of experiment: Cell toxicity screening (MTT assay) in MDA-MB-435S.luc breast cancer cells. The experiment is classed as cell-based, human. The source says:
This example describes screening for cell toxicity (IC50) and hemolytic activity using a human breast cancer cell line.
Eighteen βCG-ala and eight LHRH conjugated fusion constructs were studied and compared to Phor21-βCG-ala and unconjugated Phor21 and Phor 18 (338913)=CLIP71 peptides. The human breast cancer cell line MDA-MB-435S.luc, which over expresses chorionic gonadotrophin (CG) and luteinizing hormone-releasing hormone (LHRH) receptors, was used to screen at passage numbers 248-252. The MDA-MB-435S.luc cell line was constructed from the MDA-MB-435S cell line obtained from the American Type Cell Culture Collection by stable transfection with the plasmid PRC/CMV-luc containing the Photinus pyralis luciferase gene and an […] by lipofection. The stably transfected cell line was selected using G418 and the clones with the highest expression for the luciferase gene were tested for their LH and LHRH receptor expression.
MDA-MB-435S.luc cells were grown in Leibovitz's L 15 medium, 10% fetal bovine serum, 0.01 mg/ml bovine insulin, 100 IU/ml penicillin, 100 microg/ml streptomycin. The cells were cultured in tight closed flasks. […]
Data were processed and analyzed using Graph Pad Prizm 4™ software (Graph Pad Prizm, Inc). Statistical analysis for significance was determined by a two-tailed Student's T-test. […]

The values below come from US20140161767A1, “FOLLICLE-STIMULATING HORMONE (FSH)/LYTIC DOMAIN FUSION CONSTRUCTS AND METHODS OF MAKING AND USING SAME” (BOARD OF SUPERVISORS OF LOUISIANA STATE UNIVERSITY AND …, priority 2012, published 2014).

On to KFAKFAK KFAKFAK KFAK [Phor18], for which the IC50 with OVCAR-3 [1] was found to be 20.5 ± 5.1 µM.
With “KFAKFAKKFAKFAKKFAKQHWSYGLRPG [Phor18-LHRH]”, the “Time after injection to destruction of tumors” value in the experiment on MDA-MB-435S xenograft was 1 h. Also, the results for the IC50 in the experiment with OVCAR-3 cells, in the experiment on SKOV-3 cells and in the experiment with OVCAR-3 [2] were 0.5 µM, 11.5 µM and 3 ± 0.5 µM, respectively. For the same substance, the “fold more potent (toxic) than Phor21-βCG-ala” value in the experiment with MDA-MB-435S.luc cells was 2 fold.
